Values quoted from earlier work, collected in patent publication US9334250B2, “Multifunctional radical quenchers for the treatment of mitochondrial dysfunction” (Arizona Board of Regents, A Body Corporate of the State of …, priority 2012, dated 2016).

Details: James et al. (2005) J Biol. Chem. 280, 21295-21312

**Q.** With `COC1=C(OC)C(=O)C(C/C=C(\C)CC/C=C(\C)CC/C=C(\C)CC/C=C(\C)CC/C=C(\C)CC/C=C(\C)CC/C=C(\C)CC/C=C(\C)CC/C=C(\C)CCC=C(C)C)=C(C)C1=O` [coenzyme Q10] as the compound, how does the calculated octanol-water partition coefficient read?
**A.** > 1e+20
